According to ChEMBL document CHEMBL5550147, “Supramolecular prodrug of SN38 based on endogenous albumin and SN38 prodrug modified with semaglutide side chain to improve the tumor distribution” (Bioorg Med Chem, 2024):
Each block holds one compound with its values, some of them ahead of it. Calls of active or inactive are those of the source. The rule behind the calls is not given here.

Assays:
[1] = Drug distribution in lung of nude mouse xenografted with human HT-29 cells at 15 mg/kg, iv measured for 1 to 48 hrs by HPLC analysis; type: ADME, organism-based; conditions: in vivo, time 1-48 hrs
HT-29 [2] = experiment: Anti-tumor activity against human HT-29 cells xenografted in nude mouse at 15 mg/kg, iv measured for 35 days relative to control; type: functional; conditions: HT-29, 840 h, time 35 day, read-out: TGI
[3] = Stability of compound in PBS at pH 6.5 at 50 uM by HPLC analysis; type: physicochemical; conditions: buffer, pH 6.5, 50 µM
[4] = Stability of compound in PBS at pH 7.4 at 50 uM by HPLC analysis; type: physicochemical; conditions: buffer, pH 7.4, 50 µM
[5] = Stability in mouse plasma assessed as half life by HPLC analysis; type: ADME, cell-free
[6] = Prodrug conversion in mouse plasma assessed as drug release incubated for 24 hrs by HPLC analysis; type: ADME, cell-free
A549 = experiment: Cytotoxicity against human A549 cells incubated for 48 hrs by MTT assay; type: functional, cell-based
HepG2 = experiment: Cytotoxicity against human HepG2 cells incubated for 48 hrs by MTT assay; type: functional, cell-based
HT-29 [7] = experiment: Cytotoxicity against human HT-29 cells incubated for 48 hrs by MTT assay; type: functional, cell-based
MG-63 = experiment: Cytotoxicity against human MG-63 cells incubated for 48 hrs by MTT assay; type: functional, cell-based
MIA PaCa-2 = experiment: Cytotoxicity against human MIA PaCa-2 cells incubated for 48 hrs by MTT assay; type: functional, cell-based
[8] = Cmax in BALB/c mouse at 28 mg/kg, iv measured for 1 to 72 hrs by HPLC analysis; type: ADME, organism-based; conditions: in vivo, time 1-72 hrs
[9] = Half life in BALB/c mouse at 28 mg/kg, iv measured for 1 to 72 hrs by HPLC analysis; type: ADME, organism-based; conditions: in vivo, time 1-72 hrs
[10] = Volume of distribution in BALB/c mouse at 28 mg/kg, iv measured for 1 to 72 hrs by HPLC analysis; type: ADME, organism-based; conditions: in vivo, time 1-72 hrs
[11] = Clearance in BALB/c mouse at 28 mg/kg, iv measured for 1 to 72 hrs by HPLC analysis; type: ADME, organism-based; conditions: in vivo, time 1-72 hrs
[12] = AUC (0 to infinity) in BALB/c mouse at 28 mg/kg, iv measured for 1 to 72 hrs by HPLC analysis; type: ADME, organism-based; conditions: in vivo, time 1-72 hrs
[13] = Drug distribution in lung of nude mouse xenografted with human HT-29 cells at 17.9 mg/kg, iv measured for 1 to 48 hrs by HPLC analysis; type: ADME, organism-based; conditions: in vivo, time 1-48 hrs
[14] = Drug accumulation in lung of nude mouse xenografted with human HT-29 cells assessed as fold change in free SN38 at 28 mg/kg, iv measured for 50 hrs by HPLC analysis relative to Irinotecan; type: ADME, organism-based; conditions: in vivo
[15] = Drug accumulation in human HT-29 cells xenografted in nude mouse assessed as fold increase at 28 mg/kg, iv measured for 1 hr by HPLC analysis relative to Irinotecan; type: ADME, organism-based; conditions: in vivo
[16] = Drug accumulation in human HT-29 cells xenografted in nude mouse assessed as fold increase at 28 mg/kg, iv measured for 6 hrs by HPLC analysis relative to Irinotecan; type: ADME, organism-based; conditions: in vivo
[17] = Drug accumulation in human HT-29 cells xenografted in nude mouse assessed as fold increase at 28 mg/kg, iv measured for 24 hrs by HPLC analysis relative to Irinotecan; type: ADME, organism-based; conditions: in vivo
[18] = Drug accumulation in human HT-29 cells xenografted in nude mouse assessed as fold increase at 28 mg/kg, iv measured for 48 hrs by HPLC analysis relative to Irinotecan; type: ADME, organism-based; conditions: in vivo
HT-29 [19] = experiment: Anti-tumor activity against human HT-29 cells xenografted in nude mouse at 28 mg/kg, iv measured for 35 days relative to control; type: functional; conditions: HT-29, 840 h, time 35 day, read-out: TGI
[20] = Toxicity in nude mouse xenografted with human HT-29 cells assessed as body weight change at 28 mg/kg, iv measured for 35 days; type: organism-based; conditions: in vivo, 840 h, time 35 day

Drug uptake [1]: Active
Compound: CCc1c2c(nc3ccc(OC(=O)N4CCC(N5CCCCC5)CC4)cc13)-c1cc3c(c(=O)n1C2)COC(=O)[C@]3(O)CC [IRINOTECAN]
inhibition in vivo at 15 mg/kg (HT-29 [2]): 62.3%

Stability [3]: Stable
Stability [4]: Stable
half-life [5]: 14 h
Drug metabolism [6]: Metabolite_Detected
Cmax [8]: 3670 ng/mL
half-life [9]: 4.37 h
Vd [10]: 0.191 L
CL [11]: 0.517 mL/min/kg
AUC [12]: 23130 ng·h/mL
Drug uptake [13]: Active
fold change (FC) [14]: 0.3
fold change (FC) [15]: 2.5
fold change (FC) [16]: 2.1
fold change (FC) [17]: 1.6
fold change (FC) [18]: 7.8
Compound: CCc1c2c(nc3ccc(O)cc13)-c1cc3c(c(=O)n1C2)COC(=O)[C@@]3(CC)OC(=O)CNC(=O)CCCCCCCCCCCCCCCCC(=O)O
Activity (A549): Active
Activity (HepG2): Active
Activity (HT-29 [7]): Active
Activity (MG-63): Active
Activity (MIA PaCa-2): Active
inhibition in vivo at 28 mg/kg (HT-29 [19]): 71%
Activity [20]: Non-Toxic
